The record followed here is patent publication US20150087037A1, “FERMENTATION PROCESS” (LanzaTech New Zealand Limited, priority 2013, published 2015).

Assay [1] has as its system Clostridium autoethanogenum. The experiment in a line: Fermentation of gaseous substrate comprising CO with 2-HIBA: general findings and carbon balance. It is filed as cell-based. An excerpt:
Accordingly, the inventors are the first to devise a process for producing high concentrations of 2,3-butanediol through the microbial fermentation of a gaseous substrate comprising CO. In a first stage, a gaseous substrate comprising CO is fed to a bioreactor containing a culture of one or more microorganisms suspending in liquid nutrient media. The gaseous substrate is anaerobically fermented to produce one or more alcohols and/or one or more acids or mixtures thereof. Compounds are provided to the fermentation to alter the metabolite profile of the fermentation.
Carbon balance measurements were performed to confirm the shift to increased 2,3-butanediol production after addition of 2-HIBA.
As the 2-HIBA is not consumed by the fermentation, it is possible to recover 2-HIBA exiting the bioreactor and pass it back to the bioreactor to improve the efficiency of the fermentation.

In assay [2] the test system is Ketol-acid reductoisomerase IlvC. The experiment in a line: Inhibition of ketol-acid reductoisomerase. Particulars: mode of action proposed from gene expression and BCAA data. It is filed as biochemical, Clostridium autoethanogenum. An excerpt: The addition of 2-HIBA impacts the metabolism of Clostridium autoethanogenum. […] In native systems the expression and activity of Acetolcatate synthase IlvBN is down regulated by branched chain amino acid synthesis. The addition of 2-HIBA to the fermentation inhibits Ketol-acid recuctoisomerase IlvC, branch chained amino acid biosynthesis, which results in a decrease in the concentration of valine, isoleucine and leucine. As a result, feedback inhibition of the IlvBN enzyme by valine, isoleucine and leucine is removed. This causes an increase in acetolactate production. An increase in the acetolactate pool leads to an overflow of carbon to 2,3-butanediol. The conversion of acetolactate and acetoin to 2,3-BDO are not rate limited, and conversion to 2,3-BDO freely occurs without the need to further up regulate enzymes responsible for the conversion of acetolactate to acetoin and/or the conversion of acetoin to 2,3-BDO.
Ketol-acid reductoisomerase is inhibited by the presence of 2-HIBA. It is considered that other compounds having similar structural characteristics to 2-HIBA and the substrates that the enzyme works on (acetolactate. 2-oxo-3-hydroxyisovalerate and 2,3-dihydroxy-3-methylbutanoate) would have a similar effect on Ketol acid reductoisomerase. […]

Assay [3] concerns C. autoethanogenum DSM23693. The experiment in a line: Minimum 2-HIBA concentration needed to impact 2,3-butanediol production, continuous addition through the media (Example 4). The class given is cell-based, Clostridium autoethanogenum. The method, then: (§1) Fermentations with C. autoethanogenum DSM23693 were carried out in 1.5 L bioreactors at 37° C. The media was prepared according to Table 1. To achieve anaerobicity the reactor vessel was sparged with nitrogen. Prior to inoculation, the gas was switched to either steel mill gas containing H2 (3%), N2 (30%), CO (47%) and CO2 (20%) or pure gases (50% CO, 18-40% CO2, with the balance N2). The gas flow was initially set at 67 ml/min/L, increasing to 200 ml/min during mid-exponential phase, while the agitation was increased from 200 rpm to 800. Na2S was dosed into the bioreactor at 0.25 ml/hr. Once the OD600 reached 1.5, the bioreactor was switched to a continuous mode at a dilution rate of 2.0-1.6 d-l and a bacterial dilution rate of 0.9-0.6 d-l. During continuous mode gas and agitation were adjusted to 900-950 rpm and 800-900 ml/min. Na2S was increased to 1.0 ml/hr.
(§2) Liquid culture samples were taken at differing intervals over the duration of the fermentation. These samples were used to establish the optical density at 600 nm (spectrophotometer) and the level of substrates and products (high performance liquid chromatography—HPLC). HPLC was routinely used to quantify the level of acetate, ethanol and 2,3-butanediol. The input and output gas compositions were analysed using a gas chromatographer (GC), allowing measurement of CO and H2 consumption and CO2 production by the culture.
In order to understand the minimum concentrations needed to generate the same effect the concentration used was dropped to 0.1 g/L (0.96 mM) in one example and 0.05 g/L (0.48 mM) in another example. Both fermentations had gas increased to minimize acetate and maximize ethanol production. Additional CO2 was blended into the gas stream to maximize 2,3-BDO production, the gas blend used was 50% CO, 35% CO2, 1.5% H2 with N2 balance. The dilution rate and bacterial dilution rate were adjusted to 1.8 day^−1 and 0.8 day^−1 respectively. Once stable data was collected continuous 2-HIBA addition through the media was started and resulting impact on metabolite concentrations observed. In both examples the ratio before the addition of 2-HIBA was about 2:1, and the resulting impact on the Ethanol:2,3-BDO ratio was proportional to the concentration of 2-HIBA used. In the first example where 0.1 g/L (0.96 mM) was used the ratio improved to 1:1 and when the concentration was halved (in the second example) the response was an improvement in the ratio to only 1.5:1.
In two further experiments concentrations from 0.01 g/L to 0.1 g/L (0.096, 0.24, 0.48, 0.72, 0.96 mM) were added and the impact on the metabolites observed. Again the fermentations had gas increased to minimize acetate and maximize ethanol production with CO2 blended into the gas stream to maximize 2,3-BDO production. The dilution rate and bacterial dilution rate were adjusted to 1.8 day^−1 and 0.9 day^−1 respectively. The gas blend used was 42% CO, 35% CO2, 1.5% H2 with N2 balance.

Assay [4] concerns C. autoethanogenum DSM23693. The experiment in a line: Single reactor fermentation optimised for 2,3-BDO production, single 2-HIBA addition (Example 1). It is filed as cell-based, Clostridium autoethanogenum. Here is the method: as §1, §2
The impacts of 2-HIBA were investigated on a single reactor system which had been optimised for 2,3-BDO production. This was done to ascertain the impact that this chemical would have on a high performance system and obtain information on suitable concentrations that would not interfere with overall fermentation stability.
The 2,3-BDO concentration increased from 6 g/L to 12 g/L dropping the ratio from 4:1 to as low as 1.4:1. […] The concentration of 2-HIBA was monitored in the reactor liquid outflow. […] The 2-HIBA washes out of the fermenter according to the bacterial dilution rate.

On to `CC(C)(O)C(=O)O` [2-HIBA, 2-hydroxyisobutyric acid], for which the “2,3-BDO concentration” value in assay [1] (2-HIBA at 0.01 g/L-2.0 g/L (0.096 to 19.2 mM)) is “significantly increases”; in assay [4] (after 0.5 g/L (4.8 mM) 2-HIBA added on day 7.95, increased from 6 g/L), 12 g/L. The “ethanol:2,3-BDO ratio” value in assay [1] (addition of 2-HIBA) is recorded as “significantly improves”. The carbon balance result in assay [1] (before and after addition of 2-HIBA, FIG. 14) was “clear increase in 2,3-butanediol production, accompanied by a decrease in production of ethanol, acetate and biomass”. In assay [1] (continuous addition, 0.01 g/L/day-2.0 g/L/day (0.096 to 19.2 mM/day)), the overall fermentation stability result is given as “without affecting overall fermentation stability”. Moreover, the “effect on Ketol-acid reductoisomerase” value in assay [2] was “inhibited”. Further, the “lowest concentration that impacts on the production of 2,3-butanediol” value in assay [3] (0.01 g/L to 0.1 g/L tested, 0.01 g/L = 0.096 mM) is reported as 0.01 g/L. Besides, the CO uptake was determined as 9.8 mol/L/day in assay [3] (Expt 1: 0.96 mM/day HIBA addition, before 9.4) and 8 mol/L/day in assay [3] (Expt 2: 0.48 mM/day HIBA addition, before 8.2). For the same molecule, the “2,3-BDO” value came to 16.35 g/L in assay [3] (Expt 1: 0.96 mM/day HIBA addition, before 9.67) and 10.56 g/L in assay [3] (Expt 2: 0.48 mM/day HIBA addition, before 8.42). Besides, the Biomass in assay [3] (Expt 1: 0.96 mM/day HIBA addition, before 10.7) is listed as 9.83 g/L; in assay [3] (Expt 2: 0.48 mM/day HIBA addition, before 12.69), 12.14 g/L. In addition, the Ethanol is recorded as 17.05 g/L in assay [3] (Expt 1: 0.96 mM/day HIBA addition, before 20.33) and 15.56 g/L in assay [3] (Expt 2: 0.48 mM/day HIBA addition, before 18.73). For the same molecule, in assay [3] (for every 0.05 g/L (0.48 mM) added to a stable fermentation, data of four examples, FIG. 8), the “drop of Ethanol:2,3-BDO ratio” value was found to be 0.5 units. For the same molecule, the “impact on gas uptake” value in assay [4] (0.5 g/L (4.8 mM) 2-HIBA) is “not to have a detrimental impact on gas uptake”. Moreover, the “metabolite profile of the fermentation” value in assay [4] (0.5 g/L (4.8 mM) 2-HIBA, FIG. 1) is “increasing the production of 2,3-butanediol whilst decreasing the production of ethanol, acetate and biomass”. Further, the “overall washout rate of 2-HIBA” value in assay [4] (matched the bacterial dilution rate) is 0.7 day⁻¹. In addition, the “initial washout rate of 2-HIBA” value in assay [4] (similar to the dilution rate) was about 1.8 day⁻¹.
